Where two headings read alike, the source gives them in different places.
Tests used:
[1] = system: mouse colorectal cancer CT26 cell line; assay: Subcutaneous tumor model of female Balb/c mice transplanted with mouse colorectal cancer CT26 cell line; assay type: in vivo; settings: separate CT26 model cohort, 20 mg/kg
Experimental: Pharmacodynamic Evaluation of Test Compounds in a Subcutaneous Tumor Model of Female Balb/c Mice Transplanted with Mouse Colorectal Cancer CT26 Cell Line
CT-26 tumor cells were cultured in a suitable culture medium. Cells in the exponential growth phase were collected and subcutaneously inoculated into the right back of experimental mice. Tumor growth was observed regularly after inoculation. When the tumor reached an average volume of approximately 100 mm^3, mice were randomly grouped based on tumor size and body weight for administration. The day of grouping was defined as Day 0. Test compounds were administered orally once weekly for 4 times. The efficacy was evaluated by calculating the tumor growth inhibition (TGI) based on the tumor volume, and the safety was evaluated based on the changes in animal body weight and death. […] All test compounds were well-tolerated.

[2] = Pharmacokinetic (PK) study in ICR mice, IV and PO
Experimental: (§1) The doses for IV and PO were 2 mg/kg and 5 mg/kg, respectively. Blood was collected at different time points after IV and PO administration and placed in heparinized tubes. Plasma was separated and frozen in a −20° C. refrigerator. Plasma was processed and then analyzed by LCMS/MS. Pharmacokinetic parameters of drug administration were calculated using a non-compartmental model in WinNonlin 8.2 software.

human STING protein = human STING protein (Homo sapiens, UniProt Q86WV6); settings: cited from earlier work
[3] = system: human non-small cell lung cancer; settings: in combination with standard chemotherapy; cited from earlier work
[4] = mouse; for oral availability: ICR, in vivo, 5 mg/kg; for clearance in vivo compared to MAS-2: po
Experimental: as §1

in vivo = settings: ICR, mouse
Experimental: as §1

[5] = ICR, mouse, plasma, iv, 2 mg/kg
[6] = ICR, mouse, plasma, po, 5 mg/kg
[7] = mouse PK, injection 2 mg/kg and oral 5 mg/kg

Chain of human STING protein (Q86WV6 whole entry): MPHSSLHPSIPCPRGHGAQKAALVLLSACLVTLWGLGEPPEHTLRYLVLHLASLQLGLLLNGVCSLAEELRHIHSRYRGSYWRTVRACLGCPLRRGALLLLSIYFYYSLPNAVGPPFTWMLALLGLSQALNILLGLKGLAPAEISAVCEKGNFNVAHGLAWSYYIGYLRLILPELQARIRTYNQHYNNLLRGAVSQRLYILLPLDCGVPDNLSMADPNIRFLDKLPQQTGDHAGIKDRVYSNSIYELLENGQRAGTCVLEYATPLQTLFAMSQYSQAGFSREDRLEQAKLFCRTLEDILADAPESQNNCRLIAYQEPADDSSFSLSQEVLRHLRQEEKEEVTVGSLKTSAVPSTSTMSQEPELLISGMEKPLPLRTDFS

Row | SMILES | tumor growth inhibition (TGI) [1] [%] | oral availability [4] [%] | clearance in vivo compared to MAS-2 [4] | AUC(0-t) (in vivo; iv, 2 mg/kg) [ng·h/mL] | Vd (in vivo; iv, 2 mg/kg) [L/kg] | clearance (in vivo; iv, 2 mg/kg) [mL/min/kg] | half-life (in vivo; iv, 2 mg/kg) [h] | AUC(0-t) (in vivo; po, 5 mg/kg) [ng·h/mL] | Cmax (in vivo; po, 5 mg/kg) [ng/mL] | bioavailability (in vivo; po, 5 mg/kg) [%] | half-life (in vivo; po, 5 mg/kg) [h] | other results
1 | CC[C@@H](CC(=O)c1cc2c(cc(OC)c3ocnc32)s1)C(=O)O [Compound 51] | 99 | – | – | – | – | – | – | – | – | – | – | AUC(0-t) [2, 5]: 3240 ng·h/mL; Vd [2, 5]: 1.28 L/kg; clearance [2, 5]: 10.2 mL/min/kg; half-life [2, 5]: 4.36 h; AUC(0-t) [2, 6]: 8550 ng·h/mL; Cmax [2, 6]: 4550 ng/mL; bioavailability [2, 6]: 105%; half-life [2, 6]: 3.1 h; clearance in vivo compared to MAS-2 [2, 7]: lower clearance; exposure in vivo compared to MAS-2 [2, 7]: higher exposure; oral availability ([2]; mouse PK, oral administration at 5 mg/kg): 100%
2 | CC[C@@H](CC(=O)c1cc2c(cc(OC)c3oc(C)nc32)s1)C(=O)O [Compound 53] | 101 | – | – | – | – | – | – | – | – | – | – | –
3 | Cc1ccc2c(=O)c3cccc(CC(=O)O)c3oc2c1C [DMXAA] | – | – | – | – | – | – | – | – | – | – | – | activation of human STING protein (human STING protein): fails to activate; clinical efficacy [3]: failed to show significant efficacy
4 | COc1cc2sc(C(=O)CC(C)C(=O)O)cc2c2ncoc12 (centres unmarked) [Example 12] | – | 100 | lower clearance | 1570 | 0.49 | 21.2 | 1.5 | 4060 | 6020 | 104 | 2 | –
5 | COc1cc2sc(C(=O)C[C@H](C)C(=O)O)cc2c2ncoc12 [Example 46, (S)-4-(4-methoxythieno[2′,3′:5,6]benzo[1,2-d]oxazol-7-yl)-2-methyl-4-oxobutanoic acid] | – | 64.6 | lower clearance | 3540 | 0.32 | 9.38 | 1.72 | 5710 | 6480 | 64.6 | 1.61 | –
